Data taken from US12215354B2, “Differentiation of human embryonic stem cells into single hormonal insulin positive cells” (Janssen Biotech, Inc., priority 2011, dated 2025).

Tested on: human embryonic stem cell line H1
Assay: Immune staining for insulin, glucagon and somatostatin hormones at end of stage 5 (Example 11)
Type: cell-based
Conditions: percentage of the entire hormone count, 0.25 mM ascorbic acid
Description: Cells of the human embryonic stem cell line H1 at various passages (passage 40 to passage 52) were seeded as single cells at a density of 100,000 cells/cm^2 on MATRIGEL™ (1:30 dilution) coated dishes in mTesr™1 media and 10 μM of Y27632. Forty eight hours post seeding, cultures were differentiated into pancreatic endocrine lineage as follows: • a. Stage 1 (Definitive Endoderm (DE)−3 days): Prior to start of DE, the cultures were washed and incubated with incomplete PBS (no Mg or Ca) for 30 seconds followed by addition of the stage 1 media. Human embryonic stem cells cultured as single cells on MATRIGEL™-coated dishes were treated with MCDB-131 medium supplemented with 0.1% fatty acid-free BSA, 0.0012 g/ml sodium bicarbonate, 1× GLUTAMAX™, 5 mM D-Glucose, 100 ng/ml GDF8, and 1 μM MCX compound (GSK3B inhibitor) for one day. Cells were then treated with MCDB-131 medium supplemented with 0.1% fatty acid-free BSA, 0.0012 g/ml sodium bicarbonate, 1× GLUTAMAX™, 5 mM glucose, 100 ng/ml GDF8, and 100 nM MCX compound for day two, followed by an additional day in MCDB-131 medium supplemented with 0.1% fatty acid-free BSA, 0.0012 g/ml sodium bicarbonate, 1× GLUTAMAX™, 5 mM Glucose, and 100 ng/ml GDF8. • b. Stage 2 (Primitive gut tube−2 days): Stage 1 cells were treated with MCDB-131 medium supplemented with 0.1% fatty acid-free BSA, 0.0012 g/ml sodium bicarbonate, 1× GLUTAMAX™, 5 mM D-Glucose, and 25 ng/ml FGF7 for two days. • c. Stage 3 (Foregut−2 days): Stage 2 cells were treated with MCDB-131 medium supplemented with 1:200 dilution of ITS-X, 2.5 mM Glucose, 1× GLUTAMAX™, 0.0015 g/ml sodium bicarbonate, 2% fatty acid-free BSA, 10 ng/ml Activin A, 25 ng/ml FGF7, 0.25 μM SANT-1, 1 μM RA, 200 nM TPB (PKC activator), 100 nM LDN-193189 (BMP receptor inhibitor) for one day. Cells were then treated with MCDB-131 medium supplemented with 1:200 dilution of ITS-X, 2.5 mM Glucose, 1× GLUTAMAX™, 0.0015 g/ml sodium bicarbonate, 2% fatty acid-free BSA, 10 ng/ml Activin A, 25 ng/ml FGF7, 0.25 μM SANT-1, 1 μM RA, 200 nM TPB (PKC activator), 10 nM LDN-193189 for an additional day. […]

For `O=C1O[C@H]([C@@H](O)CO)C(O)=C1O` [ascorbic acid], the “% Polyhormonal” value was 36%, the “% glucagon + plus % somatostatin+” value was 44% and the “% single hormonal Insulin+” value was 55%.
